According to ChEMBL document CHEMBL2203037, “Synthesis and Anti-influenza A Virus Activity of 2,2-Dialkylamantadines and Related Compounds” (ACS Med Chem Lett, 2012):

Key:
[1] = test system: Influenza B virus; assay: Antiviral activity against amantidine and rimantadine-resistant Influenza B virus (B/HK/5/72) infected in MDCK cells assessed as virus-induced cytopathic effect by MTS assay; format: functional, cell-based; details: B/Hong Kong/05/1972, MDCK
[2] = test system: Influenza B virus; assay: Antiviral activity against amantidine and rimantadine-resistant Influenza B virus (B/HK/5/72) infected in MDCK cells assessed as virus-induced cytopathic effect measured 3 days post infection by microscopic analysis; format: functional, cell-based; details: B/Hong Kong/05/1972, MDCK, 72 h
[3] = test system: Influenza A virus; assay: Antiviral activity against amantadine-resistant Influenza A virus (A/PR/8/34 (H1N1)) infected in MDCK cells assessed as virus-induced cytopathic effect measured 3 days post infection by microscopic analysis; format: functional, organism-based; details: A/Puerto Rico/8/1934(H1N1), 72 h
[4] = test system: Influenza A virus; assay: Antiviral activity against amantadine-resistant Influenza A virus (A/PR/8/34 (H1N1)) infected in MDCK cells assessed as virus-induced cytopathic effect by MTS assay; format: functional, organism-based, A/Puerto Rico/8/1934(H1N1)
[5] = Selectivity index, ratio of CC50 for dog MDCK cells to EC50 for amantadine-resistant Influenza A virus (A/PR/8/34 (H1N1)); format: toxicity, cell-based; details: read-out: Ratio CC50/EC50
[6] = Influenza A virus, A/Puerto Rico/8/1934(H1N1), MDCK

Row | SMILES | EC50 [1] [µM] | EC50 [2] [µM] | EC50 [3] [µM] | EC50 [4, 6] [µM] | selectivity ratio [5] | EC50 ([4]; mdck) [µM]
1 | CCC1(CC)C2CC3CC(C2)CC1(NC)C3 | > 100 | > 100 | 4 |  |  | 
2 | CCCC1(CCC)C2CC3CC(C2)CC1(N(C)C)C3 | > 100 | > 100 | 6 | 6.7 |  | 
3 | CN(C)C12CC3(C)CC(CC3(C)C1)C2(C)C | > 100 | > 100 | 5.8 | 5.7 |  | 
4 | CC(C)C1C2CC3CC(C2)CC1(N(C)C)C3 (centres undefined) | > 50 | > 100 | 5.1 | 6 |  | 
5 | CC1(C)C2CC3CC(C2)CC1(N)C3 | > 100 | > 100 | 15 | 10 |  | 
6 | CCC1(CC)C2CC3CC(C2)CC1(N)C3 | > 100 | > 100 | 1.2 | 1.7 | > 50 | 
7 | CCCC1(CCC)C2CC3CC(C2)CC1(N)C3 | > 100 | > 100 | > 100 | > 100 |  | 
8 | CC(C)C1C2CC3CC(C2)CC1(N)C3 (centres undefined) | > 100 | > 100 | 5.8 | 1.2 |  | 
9 | NC12CC3CC(CC(C3)C13CCCCC3)C2 | > 100 | > 100 | 1.1 | 0.9 |  | 
10 | CC12CC3CC1(C)CC(N)(C2)C3(C)C | > 100 | > 100 | 4.6 | 4.5 |  | 
11 | CN(C)C12CC3CC(CC(C3)C1(C)C)C2 | > 100 | > 100 | 4 | 4.8 |  | 
12 | CCNC12CC3CC(CC(C3)C1(C)C)C2 | > 100 | > 100 | > 100 | > 100 |  | 
13 | CC1(C)C2CC3CC(C2)CC1(NCc1ccccc1)C3 | > 100 | > 100 | > 100 | > 100 |  | 
14 | CC1(C)C2CC3CC(C2)CC1(N1CCCCC1)C3 | > 100 | > 100 | > 100 | > 100 |  | 
15 | CN(Cc1ccccc1)C12CC3CC(CC(C3)C1(C)C)C2 | > 100 | > 100 | > 100 | > 100 |  | 
16 | CNC12CC3CC(CC(C3)C1(C)C)C2 | > 100 | > 100 | 6 | 10 |  | 
17 | CCC1(CC)C2CC3CC(C2)CC1(N(C)C)C3 | > 100 | > 100 | 0.7 | 9.6 |  | 
18 | NC12CC3CC(CC(C3)C1)C2 [AMANTADINE] | > 100 | > 100 | 53 |  |  | 
19 | CCOC(=O)C1=C[C@@H](OC(CC)CC)[C@H](NC(C)=O)[C@@H](N)C1 [OSELTAMIVIR] |  |  | 21 |  |  | 
20 | NC(=O)c1ncn([C@@H]2O[C@H](CO)[C@@H](O)[C@H]2O)n1 [RIBAVIRIN] | 8.1 | 8 |  |  |  | 8.2
21 | CC(N)C12CC3CC(CC(C3)C1)C2 (centres undefined) [RIMANTADINE] | > 100 | > 100 | 63 |  |  | 
22 | CC(=O)N[C@H]1[C@H]([C@H](O)[C@H](O)CO)OC(C(=O)O)=C[C@@H]1NC(=N)N [ZANAMIVIR] |  |  | 6 |  |  | 
